Assay: xn = mol fraction of the nth substance listed
Details: 101 kPa, Liquid, Vibrating tube method

OCC(O)CO [glycerol] + O
mass density [kg/m3]
Details	298.15 K	308.15 K	323.15 K	333.15 K	348.15 K
x1 = 0.00209	–	996.42	990.39	985.55	977.18
x1 = 0.00439	1002.17	999.06	992.99	988.13	979.74
x1 = 0.0051	1002.98	999.87	993.77	988.9	980.52
x1 = 0.00657	1004.67	1001.52	995.4	990.52	982.12
x1 = 0.01072	1009.34	1006.11	999.9	994.98	986.55
x1 = 0.01633	1015.48	1012.13	1005.81	1000.85	992.29
x1 = 0.03504	1034.47	1030.74	1024.15	1018.99	1010.23
x1 = 0.05086	1049.05	1045.04	1038.23	1032.9	1024.05
x1 = 0.06775	1063.23	1058.94	1051.86	1046.46	1037.5
x1 = 0.1127	1095.24	1090.4	1082.82	1077.08	1067.8
x1 = 0.1559	1119.87	1114.62	1106.34	1100.45	1090.81
x1 = 0.206	1142.86	1137.3	1128.58	1122.53	1112.88
x1 = 0.256	1161.34	1155.48	1146.57	1140.39	1130.45
x1 = 0.3311	1183	1177.16	1168.09	1161.69	1151.47
x1 = 0.4012	1198.45	1192.55	1183.35	1177	1166.73
x1 = 0.4907	1213.75	1207.7	1198.19	1191.81	1181.85
x1 = 0.5828	1225.65	1219.6	1210.22	1203.79	1193.86
x1 = 0.6857	1236.32	1230.18	1220.77	1214.31	1204.27
x1 = 0.7494	1241.81	1235.6	1226.23	1219.8	1209.73
x1 = 0.8101	1246.48	1240.19	1230.76	1224.29	1214.26
x1 = 0.8528	1249.4	1243.15	1233.67	1227.21	1217.21
x1 = 0.882	1251.36	1245.07	1235.56	1229.08	1219.1
x1 = 0.9143	1253.31	1247.06	1237.53	1231.07	1221.08
x1 = 0.9408	1254.8	1248.55	1239.01	1232.59	1222.63
x1 = 0.9578	1255.73	1249.47	1239.93	1233.52	1223.59
x1 = 0.9792	1256.89	1250.63	1241.1	1234.68	1224.76
x1 = 0.9895	1257.41	1251.16	1241.61	1235.2	1225.28
x1 = 1	1257.91	1251.66	1242.11	1235.71	1225.79

Source: the NIST ThermoML archive (doi:10.1016/j.tca.2013.07.012)
